What all share (type): biochemical
Data set [1] relates to monomeric Chymohelizyme 1. The experiment in a line: Inhibition of substrate hydrolysis by Chymohelizyme 1 by specific chymotrypsin inhibitors. The source says:
Inclusion of indole at a concentration equal to that of the substrate ZTONP caused approximately 70% inhibition of substrate hydrolysis.

A short description of data set [2]: Hydrolysis of ZTONP (esterase activity), followed spectrophotometrically. The conditions noted are these: initial turnover number. As to the method:
Kinetic studies of purified Chymohelizyme 1 were performed using ATEE, BTEE or ZTONP as the substrate.
The progress of the reaction was followed spectrophotometrically. Progress of the hydrolysis of ATEE was followed by titration.

Data set [3] in a line: Hydrolysis of ATEE (esterase activity), followed by titration. Conditions: pH 8.1, 0.05 molar sodium chloride solution. On the procedure: Hydrolysis of ATEE at pH 8.1 in 0.05 molar sodium chloride solution followed classical Michaelis-Menten kinetics; kM=1.0 mM and kcat=0.042/sec(corresponding values for chymotrypsin are 0.7 mM; 3.0/sec), showing an activity approximately 1% that of chymotrypsin for this substrate.
Hydrolysis of BTEE and ZTONP were performed as described (Meth. Enzymol. volume XIX, Academic Press, New York, 1970, pp. 38-41). The progress of the reaction was followed spectrophotometrically. Progress of the hydrolysis of ATEE was followed by titration.

As usually defined, the Km is the concentration of substrate that gives half-maximal velocity. The term kcat denotes the number of substrate molecules converted per active site and unit of time at saturation.

As to `c1ccc2[nH]ccc2c1` [indole], in data set [1], the “inhibition of hydrolysis of substrates by monomeric Chymohelizyme 1” value was “inhibited”. Further, the “inhibition of substrate hydrolysis” value in data set [1] (inhibitor at a concentration equal to that of the substrate ZTONP) is given as “approximately 70%”.
In the case of `Cc1ccc(O)cc1` [p-cresol], the “inhibition of hydrolysis of substrates by monomeric Chymohelizyme 1” value in data set [1] is given as “inhibited”.
With chymotrypsin, the turnover number in data set [2] turned out to be 300 s⁻¹. In data set [3], the Michaelis constant (Km) was determined as 700 µM and the kcat stood at 3.0 s⁻¹.

The values are drawn from patent US5304631A, “Synthetic helizyme enzymes” (University of Colorado Foundation, Inc., priority 1990, dated 1994).
